Test system: DU-145 cells
Assay: Cell proliferation assay (Alamar-Blue), proliferation inhibition of DU-145 cells
Format: cell-based
Details: Homo sapiens, 72 h, 3 days incubation, Alamar-Blue fluorescence
Method: Protocol for Cell Proliferation Assay:
This homogeneous assay involves simply adding a single reagent, the Alamar-Blue, to the cell culture and measuring the fluorescence intensity (excitation wavelength=530 nm, emission wavelength=590 nm) after an incubation step. The Alamar-Blue reagent utilizes the redox dye resazurin, which is not fluorescent, but upon reduction by metabolically active cells is converted into a highly fluorescent product (resorufin). A decrease in fluorescence in the presence of a test compound indicates reduced proliferation. This change in signal is proportional to the number of viable cells and used as a measure of relative cytotoxicity. Therefore, the fluorescence intensity observed in this assay is a true measure of the viable proliferative cells.
• 2 mM stock of Paclitaxel in DMSO. • DMSO (Panreac, Cat. number 141954.1611) • Resazurin sodium salt (Sigma, R-7071). 50 mM stock in DMSO. Equipment • Biomek FX Laboratory Automated Workstation (Beckman Coulter Inc., Fullerton, Calif.) • CO2 incubator (VWR Science, USA) • Bright line Hemacytometer (Z359629, Sigma, IL, USA) Materials • 384-deep well plates (Greiner, N^o 781270) • 384-well optical bottom tissue culture plates (Greiner, No. 82051-282) Propagation CONDITIONS: 37° C., air 95%; carbon dioxide (CO2) 5%, humidified atmosphere. Subculturing: • Cells were grown in 175 cm^2 flasks to 90-100% of confluency. • Culture medium (RPMI-1640 (Paneco, C310)+10% fetal bovine serum (FBS)) was aspirated and cell layer was briefly rinsed with 0.53 mM EDTA (ethylenediaminetetraacetic acid) solution to remove all traces of serum. • 2 ml of 0.2% trypsin/0.53 mM EDTA solution was added to cells. • Flasks were returned to incubator for 5 min to allow cells detachment. • Add 6.0 ml of culture medium. • Single cell suspension was created by gently pipetting. • Cells are counted using a Hematocytometer and suspension with desirable cell concentration is prepared.
To test proliferation inhibition DU-145 cells were plated in 384-well plate at the density 4000 cells/well. Next day 4 mM solutions of compounds in DMSO were diluted 100 times in medium and added to cells to final concentration 20 uM (40 ul of cells+40 ul of compounds). Taxol at final concentration 1 uM was used as positive control. Cells were incubated with compounds for 3 days. After that Alamar-Blue was added to cells to final concentration of 50 uM. After incubation for 4-6 hours at 37° C., fluorescence in plate was read using fluorescence plate reader Wallac 1420 (530 nm excitation filter, 590 nm emission filter). Proliferation inhibition was calculated using formula: % INH=100*((Fnegative−compound signal)/(Fnegative−Fpositive)), • Fnegative—DMSO was added to cells (viable cells) • Fpositive—taxol (1 uM) was added to cells (number of cells at the first day of incubation)

| Compound | IC50 |
| --- | --- |
| Cc1ccc(C(=O)N2CCC=c3cc(C)c4c(c32)C=CN=4)cc1 [Example 5, (6-methyl-2,3-dihydro-1H-pyrrolo[2,3-h]quinolin-1-yl)(4-methylphenyl)methanone] | 10.3 µM |
| COc1ccc(C(=O)N2CCc3cc4cc(C)ccc4nc32)cc1OC [Example 2, (3,4-dimethoxyphenyl)(6-methyl-2,3-dihydro-1H-pyrrolo[2,3-b]quinolin-1-yl)methanone] | 0.183 µM |
| Cc1cccc2cc3c(nc12)N(C(=O)c1ccccc1Br)CC3 [Example 11, (2-bromophenyl)(8-methyl-2,3-dihydro-1H-pyrrolo[2,3-b]quinolin-1-yl)methanone] | 15000 µM |
| O=C(c1ccccc1Br)N1CCc2cc3ccccc3nc21 [Example 9, (2-bromophenyl)(2,3-dihydro-1H-pyrrolo[2,3-b]quinolin-1-yl)methanone] | 238 µM |
| CC1=Cc2c3c(ccc2=N1)=CCCN3C(=O)c1ccccc1C [Example 7, (8-methyl-2,3-dihydro-1H-pyrrolo[2,3-h]quinolin-1-yl)(2-methylphenyl)methanone] | 17.2 µM |
| CC1=Cc2c3c(ccc2=N1)=CCCN3C(=O)c1cccc(F)c1 [Example 10, (3-fluorophenyl)(8-methyl-2,3-dihydro-1H-pyrrolo[2,3-h]quinolin-1-yl)methanone] | 4400 µM |
| COc1ccccc1C(=O)N1CCc2cc3cccc(C)c3nc21 [Example 6, (2-methoxyphenyl)(8-methyl-2,3-dihydro-1H-pyrrolo[2,3-b]quinolin-1-yl)methanone] | 16.1 µM |
| Cc1cccc2cc3c(nc12)N(C(=O)c1ccccc1F)CC3 [Example 8, (2-fluorophenyl)(8-methyl-2,3-dihydro-1H-pyrrolo[2,3-b]quinolin-1-yl)methanone] | 134 µM |
| COc1cc(C(=O)N2CCc3cc4ccccc4nc32)cc(OC)c1OC [Example 1, 2,3-dihydro-1H-pyrrolo[2,3-b]quinolin-1-yl(3,4,5-trimethoxyphenyl)methanone] | 0.114 µM |
| COc1cccc(C(=O)N2CCc3cc4cc(C)ccc4nc32)c1 [Example 3, (3-methoxyphenyl)(6-methyl-2,3-dihydro-1H-pyrrolo[2,3-b]quinolin-1-yl)methanone] | 0.613 µM |
| COc1ccccc1C(=O)N1CCc2cc3ccccc3nc21 [Example 4, 2,3-dihydro-1H-pyrrolo[2,3-b]quinolin-1-yl(2-methoxyphenyl)methanone] | 3.62 µM |
